Measurements from ChEMBL document CHEMBL1201862, “PubChem BioAssay data set” (2004).
The source made the active and inactive calls. Rule as the data show it, for most assays here: actives have a measured EC50 and inactives only a lower limit.

What was measured:
[1] = tested on: Streptococcus sp. 'group A'; assay: Streptococcus pyogenes SK(-)GAS viability under kanamycin – luminescence, BacTiterGlo, confirmation, counter-screen for streptokinase expression inhibitor project, dose response (AID 1900); type: functional, organism-based
Streptokinase A = target: T1, Streptokinase A (Streptococcus pyogenes serotype M1, UniProt P10520); assay: viability-normalized secreted streptokinase activity reduction – plasminogen activation absorbance, OD405, dose response (AID 1914); type: functional, Streptococcus pyogenes M1 GAS;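 also: secreted streptokinase activity via plasminogen activation per viability signal from cell pellet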
T1 sequence (P10520 whole entry): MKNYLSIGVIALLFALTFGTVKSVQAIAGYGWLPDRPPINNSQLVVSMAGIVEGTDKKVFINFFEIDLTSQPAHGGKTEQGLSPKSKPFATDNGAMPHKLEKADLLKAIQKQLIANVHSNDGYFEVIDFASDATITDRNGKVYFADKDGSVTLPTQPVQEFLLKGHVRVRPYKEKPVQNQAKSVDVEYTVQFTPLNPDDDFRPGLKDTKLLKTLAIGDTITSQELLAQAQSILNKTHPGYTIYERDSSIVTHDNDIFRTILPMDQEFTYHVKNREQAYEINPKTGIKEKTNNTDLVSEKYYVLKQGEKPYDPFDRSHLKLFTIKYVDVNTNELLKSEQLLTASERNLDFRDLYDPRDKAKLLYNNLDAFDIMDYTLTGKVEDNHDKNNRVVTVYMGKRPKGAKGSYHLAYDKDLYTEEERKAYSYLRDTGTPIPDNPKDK

Streptococcus = assay: GAS UMAA2166 growth inhibition – luminescence, BacTiterGlo, counter-screen for streptokinase expression inhibitor project, dose response (AID 1915); type: functional, organism-based;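 also: potency for reduction of bacterial viability or growth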
INS1 = assay: INS-1E survival protection against cytokine death – cell-based, luminescence, retest, dose response (AID 449756); type: functional; settings: Rattus norvegicus;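 also: cell death triggered by IL-1 beta plus TNF-alpha plus IFN-gamma mixture; protective hits raise ATP signal compared with cytokine alone wells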
[2] = Luminescence Cell-Based Dose Confirmation HTS to Identify Inhibitors of Platelet Dense Granule Release. [Related pubchem assays: 1663 (Primary HTS), 1678 (Summary of Project)]; type: functional
[3] = target: Luciferin 4-monooxygenase (Photinus pyralis, UniProt P08659); assay: inhibition of purified Photinus pyralis luciferase – biochemical, luminescence, dose response (AID 1891)
[4] = target: T2, RNA-binding protein pos-1 (Caenorhabditis elegans, UniProt G5EF15); assay: disruptors of C. elegans POS-1 RNA interaction – biochemical, fluorescence polarization, dose response (AID 1964);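 also: purified POS-1 fused to maltose binding protein made in E. coli; potency of compounds blocking POS-1 binding to fluorescent RNA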
T2 sequence (G5EF15 whole entry): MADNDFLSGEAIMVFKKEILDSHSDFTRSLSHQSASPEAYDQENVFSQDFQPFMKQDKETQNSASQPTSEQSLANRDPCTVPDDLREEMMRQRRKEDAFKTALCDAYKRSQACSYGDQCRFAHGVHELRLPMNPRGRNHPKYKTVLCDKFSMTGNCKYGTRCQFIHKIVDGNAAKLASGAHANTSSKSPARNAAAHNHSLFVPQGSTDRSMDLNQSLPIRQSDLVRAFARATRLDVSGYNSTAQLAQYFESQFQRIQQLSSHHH

[5] = target: T3, Zinc finger protein mex-5 (Caenorhabditis elegans, UniProt Q9XUB2); assay: potency of MEX-5 RNA-binding blockers – biochemical, C. elegans, fluorescence polarization, dose response (AID 1960)
T3 sequence (Q9XUB2 whole entry): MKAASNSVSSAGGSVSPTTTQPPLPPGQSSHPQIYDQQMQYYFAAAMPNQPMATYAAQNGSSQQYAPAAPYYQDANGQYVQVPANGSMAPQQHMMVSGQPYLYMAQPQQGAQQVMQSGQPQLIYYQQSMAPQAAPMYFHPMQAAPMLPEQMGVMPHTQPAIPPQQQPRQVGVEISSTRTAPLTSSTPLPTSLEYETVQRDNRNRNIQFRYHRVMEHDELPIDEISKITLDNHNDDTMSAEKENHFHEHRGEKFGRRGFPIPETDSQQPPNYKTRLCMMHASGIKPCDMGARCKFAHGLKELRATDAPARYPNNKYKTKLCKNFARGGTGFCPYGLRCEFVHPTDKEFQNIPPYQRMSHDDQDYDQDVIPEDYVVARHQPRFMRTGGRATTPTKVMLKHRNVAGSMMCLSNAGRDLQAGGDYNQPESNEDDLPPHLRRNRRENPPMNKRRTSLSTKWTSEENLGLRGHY

[6] = Luminescence Cell-Based Dose Confirmation HTS to Identify Activators of 5'UTR Stem-Loop Driven Alpha-Synuclein mRNA Translation in H4 Neuroglioblastoma Cells. [Related pubchem assays: 1829 (Project Summary), 1814 (Primary HTS)]; type: functional
[7] = Luminescence Cell-Based Dose Response HTS to Identify Activators of Luciferase Translation or Activity in H4 […] Cells. [Related pubchem assays: 1829 (Project Summary), 1814 (Primary HTS)]; type: functional
H4 = assay: Luminescence Cell-Based Dose Response HTS to Identify Activators of 5'UTR Stem-Loop Driven Prion Protein mRNA Translation in H4 Neuroglioblastoma Cells. [Related pubchem assays: 1829 (Project Summary), 1814 (Primary HTS)]; type: functional; settings: Homo sapiens
[8] = NIH3T3 cell viability loss – ATP luminescence, mouse fibroblasts, counter-screen, dose response (AID 2010); type: functional, cell-based;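 also: cells exposed to compound for about 90 hours before reading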
[9] = Trypanosoma cruzi growth suppression in host cells – NIH3T3 host cells, beta-gal luminescence, confirmation (AID 2044); type: functional, cell-based;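 also: intracellular parasites grown in NIH/3T3 mouse fibroblasts as host cells; luminescent beta-galactosidase reporter signal from transgenic T. cruzi replicating inside host cells; inhibitors lower the luminescence signal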
[10] = Luminescence Cell-Based Dose Retest to Confirm Inhibitors of Cancer Stem Cells. [Related pubchem assays (depositor defined):AID2717, AID2721]; type: functional; settings: Homo sapiens
Cytochrome P450 2D6 = Cytochrome P450 2D6 (Homo sapiens, UniProt P10635);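 also: CYP2D6 member of a cytochrome P450 panel assay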
[11] = target: T4, Heat shock factor protein 1 (Mus musculus, UniProt P38532); assay: decrease of HSF1-responsive luciferase luminescence – cell-based, NIH3T3, dose retest, confirmation (AID 2382); type: functional;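 also: NIH3T3 fibroblasts with HSF1-driven luciferase reporter stressed by proteasome inhibitor MG132; luminescence from HSF1-driven luciferase expression after 8 hours of MG132 stress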
T4 sequence (P38532 whole entry): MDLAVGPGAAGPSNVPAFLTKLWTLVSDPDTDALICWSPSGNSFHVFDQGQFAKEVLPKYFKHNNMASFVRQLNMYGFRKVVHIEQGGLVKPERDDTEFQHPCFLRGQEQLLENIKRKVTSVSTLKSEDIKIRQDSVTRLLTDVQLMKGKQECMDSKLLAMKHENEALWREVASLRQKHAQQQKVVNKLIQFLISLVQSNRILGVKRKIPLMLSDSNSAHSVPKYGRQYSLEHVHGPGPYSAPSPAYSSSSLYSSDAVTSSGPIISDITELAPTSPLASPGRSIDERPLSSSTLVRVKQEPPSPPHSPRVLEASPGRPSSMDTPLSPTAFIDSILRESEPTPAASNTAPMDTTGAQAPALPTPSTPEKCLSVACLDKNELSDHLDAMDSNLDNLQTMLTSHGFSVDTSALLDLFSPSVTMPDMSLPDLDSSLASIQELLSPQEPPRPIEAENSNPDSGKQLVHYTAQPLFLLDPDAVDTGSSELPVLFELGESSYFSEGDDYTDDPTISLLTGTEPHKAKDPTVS

Cytochrome P450 2C9 = Cytochrome P450 2C9 (Homo sapiens, UniProt P11712)
[12] = target: T5, Rac GTPase-activating protein 1 (Homo sapiens, UniProt Q9H0H5); assay: blockers of MgcRacGAP-driven Rac1 GTP hydrolysis – biochemical, ADP Hunter fluorescence, primary and confirmatory, confirmation (AID 624330); type: functional
T5 sequence (Q9H0H5 whole entry): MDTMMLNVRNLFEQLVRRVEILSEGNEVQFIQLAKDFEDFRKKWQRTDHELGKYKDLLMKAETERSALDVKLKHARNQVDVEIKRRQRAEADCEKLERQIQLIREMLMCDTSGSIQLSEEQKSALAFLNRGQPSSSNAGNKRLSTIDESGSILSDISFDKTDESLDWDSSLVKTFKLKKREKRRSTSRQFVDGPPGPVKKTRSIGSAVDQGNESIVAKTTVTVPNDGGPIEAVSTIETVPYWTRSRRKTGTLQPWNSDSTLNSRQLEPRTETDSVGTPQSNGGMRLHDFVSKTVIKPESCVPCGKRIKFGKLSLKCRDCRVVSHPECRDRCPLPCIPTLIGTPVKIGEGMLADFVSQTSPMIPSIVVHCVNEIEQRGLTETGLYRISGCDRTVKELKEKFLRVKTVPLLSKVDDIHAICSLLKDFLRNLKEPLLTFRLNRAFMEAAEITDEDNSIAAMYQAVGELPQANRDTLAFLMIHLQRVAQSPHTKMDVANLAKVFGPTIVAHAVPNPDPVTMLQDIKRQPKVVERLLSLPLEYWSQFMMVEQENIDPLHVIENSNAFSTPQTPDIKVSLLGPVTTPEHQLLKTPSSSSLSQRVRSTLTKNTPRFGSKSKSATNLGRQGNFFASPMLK

Luciferin 4-monooxygenase, sequence (P08659 whole entry, the tested form may be a part): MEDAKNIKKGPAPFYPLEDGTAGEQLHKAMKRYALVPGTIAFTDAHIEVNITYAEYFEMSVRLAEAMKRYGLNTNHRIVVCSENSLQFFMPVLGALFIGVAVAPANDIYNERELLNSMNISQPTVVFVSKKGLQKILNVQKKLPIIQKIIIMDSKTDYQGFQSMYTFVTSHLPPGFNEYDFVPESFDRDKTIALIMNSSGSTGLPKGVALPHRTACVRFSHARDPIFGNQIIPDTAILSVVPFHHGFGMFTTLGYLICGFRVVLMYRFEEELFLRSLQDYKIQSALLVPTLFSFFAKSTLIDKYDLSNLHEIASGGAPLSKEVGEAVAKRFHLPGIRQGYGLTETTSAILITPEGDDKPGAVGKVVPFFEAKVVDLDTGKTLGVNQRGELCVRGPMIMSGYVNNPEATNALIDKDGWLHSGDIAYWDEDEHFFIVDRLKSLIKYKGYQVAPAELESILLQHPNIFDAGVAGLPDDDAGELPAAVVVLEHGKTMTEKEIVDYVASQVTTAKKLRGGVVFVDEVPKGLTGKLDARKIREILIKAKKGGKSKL
Cytochrome P450 2D6, sequence (P10635 whole entry): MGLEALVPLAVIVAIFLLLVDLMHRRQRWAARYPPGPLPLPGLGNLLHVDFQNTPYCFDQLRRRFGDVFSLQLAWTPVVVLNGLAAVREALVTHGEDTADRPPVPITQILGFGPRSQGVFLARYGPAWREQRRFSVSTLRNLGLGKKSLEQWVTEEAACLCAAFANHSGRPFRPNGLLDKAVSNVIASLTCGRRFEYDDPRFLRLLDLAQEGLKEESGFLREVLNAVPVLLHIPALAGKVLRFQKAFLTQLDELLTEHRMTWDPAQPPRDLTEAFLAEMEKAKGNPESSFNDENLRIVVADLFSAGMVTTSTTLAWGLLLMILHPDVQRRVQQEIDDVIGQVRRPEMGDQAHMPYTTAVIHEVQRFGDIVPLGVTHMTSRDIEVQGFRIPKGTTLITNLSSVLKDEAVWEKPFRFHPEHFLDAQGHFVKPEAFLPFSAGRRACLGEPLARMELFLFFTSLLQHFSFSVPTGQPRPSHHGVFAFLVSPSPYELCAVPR
Cytochrome P450 2C9, sequence (P11712 whole entry): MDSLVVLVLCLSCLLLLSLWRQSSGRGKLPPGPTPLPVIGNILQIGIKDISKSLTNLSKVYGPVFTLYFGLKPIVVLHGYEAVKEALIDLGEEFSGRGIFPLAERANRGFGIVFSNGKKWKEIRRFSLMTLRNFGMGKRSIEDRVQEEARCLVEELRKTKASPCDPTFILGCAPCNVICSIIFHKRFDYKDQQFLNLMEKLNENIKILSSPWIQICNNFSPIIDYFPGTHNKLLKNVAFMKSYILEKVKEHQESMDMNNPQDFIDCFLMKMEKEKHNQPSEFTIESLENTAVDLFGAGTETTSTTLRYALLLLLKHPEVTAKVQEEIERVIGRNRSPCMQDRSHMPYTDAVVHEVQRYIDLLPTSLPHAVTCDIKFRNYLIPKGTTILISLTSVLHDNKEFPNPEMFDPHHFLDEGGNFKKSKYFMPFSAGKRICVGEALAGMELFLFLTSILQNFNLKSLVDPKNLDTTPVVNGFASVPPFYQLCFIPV

Compound | EC50 [1] | EC50 (Streptokinase A) | EC50 (Streptococcus) | EC50 [6] | EC50 [7] | EC50 (H4) | other results
CCc1sc(N(C(=O)Cc2ccccc2)c2ccc(F)cc2)nc1-c1ccccc1 | > 150 µM (not active) | 11.8 µM (active) | > 150 µM (not active) |  |  |  | 
Cc1cccc(NC(S)=Nc2ccc3c[nH]nc3c2)c1 |  |  |  |  |  |  | AC50 (INS1): > 260 µM (inactive); EC50 [2]: > 112 µM (not active); EC50 [3]: > 112 µM (not active)
CC(C)C[C@H](NC(=O)N1CC(=O)Nc2ccccc21)C(=O)N[C@H](C(=O)O)c1ccccc1 | > 150 µM (not active) | > 150 µM (not active) | > 150 µM (not active) |  |  |  | 
O=C(c1ccc(F)cc1)N1CCN(C2CCC(c3ccccc3)CC2)CC1 (configuration not stated) |  |  |  |  |  |  | EC50 [4]: > 300 µM (not active); EC50 [5]: > 300 µM (not active)
c1ccn2c(c1)nc1c2nc2ccccn21 |  |  |  | 7.67 µM (active) | 25.1 µM (active) | > 120 µM (not active) | 
CCCCn1c(CCCNC(=O)c2ccco2)nc2ccccc21 | > 150 µM (not active) | > 150 µM (not active) | > 150 µM (not active) |  |  |  | 
Oc1nc(CN2CCN(C/C=C/c3ccccc3)CC2)nc2ccccc12 |  |  |  | > 120 µM (not active) | > 120 µM (not active) | > 120 µM (not active) | EC50 [8]: > 60 µM (not active); EC50 [9]: 637 nM (active)
C=CCOc1c(Cl)cc(C(=S)N2CCCC2)cc1OCC |  |  |  | > 120 µM (not active) | > 120 µM (not active) | 30.3 µM (active) | 
Cc1cc(C(=O)COC(=O)Cc2nnc(O)c3ccccc23)c(C)n1-c1ccc2c(c1)OCCO2 |  |  |  | > 120 µM (not active) | > 120 µM (not active) | 71.5 µM (active) | EC50 [8]: > 60 µM (not active); EC50 [9]: 2280 nM (active)
COC(=O)/C(C#N)=C/c1c(Oc2cc(C)cc(C)c2)nc2c(C)cccn2c1=O |  |  |  |  |  |  | EC50 [4]: 104 µM (active); EC50 [5]: > 300 µM (not active)
Cc1ccc2cc(CN(Cc3cccs3)C(=O)c3ccco3)c3nnnn3c2c1C | 2.28 µM (active) | > 150 µM (not active) | 31.7 µM (active) |  |  |  | 
O=C(C1CCCN(c2ncnc3c2nc2n3CCCCC2)C1)N1CCN(c2ccccc2)CC1 (configuration not stated) |  |  |  | > 120 µM (not active) | > 120 µM (not active) | > 120 µM (not active) | 
CC(C)(C)c1cc(C(=O)NNc2cc(C(F)(F)F)ccc2Cl)n(Cc2ccccc2)n1 | 3.24 µM (active) | > 150 µM (not active) | 8.74 µM (active) |  |  |  | AC50 [10]: 3.81 µM (active)
COc1ccc(NC(=O)CCl)cn1 |  |  |  |  |  |  | EC50 [4]: 9.67 µM (active); EC50 [5]: 8.06 µM (active)
Clc1ccc(N2COC3c4cccc5cccc(c45)C32)cc1 (configuration not stated) | 17.4 µM (active) | 14.2 µM (active) | > 150 µM (not active) |  |  |  | 
Fc1ccc(C2=CC(c3ccco3)n3ncnc3N2)cc1 (configuration not stated) |  |  |  |  |  |  | EC50 [4]: 14.7 µM (active); EC50 [5]: 12.8 µM (active)
COCC(=O)N1CCC2(CCN(Cc3ccccc3)CC2)CC1 |  |  |  |  |  |  | AC50 (Cytochrome P450 2D6): 25.1 µM (inconclusive)
COCCNC(=O)C1Nc2ccc(OC(F)(F)F)cc2C2C=CCC12 (configuration not stated) |  |  |  |  |  |  | EC50 [4]: > 300 µM (not active); EC50 [5]: > 300 µM (not active)
COc1cc2c(cc1NC(=O)CN1CCN(S(=O)(=O)c3ccccc3F)CC1)oc1ccccc12 |  |  |  | > 120 µM (not active) | > 120 µM (not active) | > 120 µM (not active) | 
CC1Cc2nc(SCC(=O)Nc3ccc4c(c3)OCO4)n(Cc3ccccc3)c(=O)c2S1 (configuration not stated) |  |  |  | 10.8 µM (active) | 5.9 µM (active) | 13.2 µM (active) | 
CCc1ccc2[nH]c(O)c(N=Nc3nc(-c4ccccc4)cs3)c2c1 | 9.51 µM (active) | > 150 µM (not active) | 27.3 µM (active) |  |  |  | EC50 [11]: > 195 µM (not active); AC50 (Cytochrome P450 2C9): 39.8 µM (inconclusive)
CC(C)[C@@H]1COC(c2cccc(C3=N[C@H](C(C)C)CO3)c2)=N1 |  |  |  | > 120 µM (not active) | 71.1 µM (active) | 10.6 µM (active) | 
Cc1ccc(O)c(/C=N/NC(=O)Cc2ccc(Cl)cc2)c1 | 3.25 µM (active) | > 150 µM (not active) | 13.6 µM (active) |  |  |  | 
COc1cc(/C=N/c2oc(-c3ccccc3)cc2C#N)ccc1O |  |  |  |  |  |  | EC50 [4]: > 300 µM (not active); EC50 [5]: > 300 µM (not active)
Nc1c(Cl)ncnc1N/N=C/c1ccc(O)cc1 |  |  |  |  |  |  | IC50 [12]: 16.5 µM (active); EC50 [2]: 0.779 µM (active); EC50 [3]: 7.55 µM (active)
CC(C)C(C(=O)Nc1nccs1)c1ccc(Cl)cc1 (configuration not stated) | 12.7 µM (active) | > 150 µM (not active) | > 150 µM (not active) |  |  |  | 
